Assay results as given in ChEMBL document CHEMBL2157940, “Low molecular weight phosphotyrosine protein phosphatases as emerging targets for the design of novel therapeutic agents” (J Med Chem, 2012).

What was measured:
[1] = target: T1, Low molecular weight phosphotyrosine protein phosphatase (Homo sapiens, UniProt P24666); test: Inhibition of human LMW-PTPase isoform 1
T1 sequence (P24666 whole entry): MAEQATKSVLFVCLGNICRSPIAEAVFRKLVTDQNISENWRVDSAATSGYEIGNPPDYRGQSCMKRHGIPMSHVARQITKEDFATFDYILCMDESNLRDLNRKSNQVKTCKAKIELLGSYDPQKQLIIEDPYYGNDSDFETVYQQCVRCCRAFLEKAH

[2] = target: T1, Low molecular weight phosphotyrosine protein phosphatase; test: Inhibition of human LMW-PTPase isoform 2
[3] = Inhibition of Mycobacterium tuberculosis LMW-PTP
[4] = target: T2, Low molecular weight phosphotyrosine protein phosphatase (Bos taurus) (UniProt P11064); test: Activation of bovine kidney LMW-PTPase at 400 uM using pNPP substrate
T2 sequence (whole entry): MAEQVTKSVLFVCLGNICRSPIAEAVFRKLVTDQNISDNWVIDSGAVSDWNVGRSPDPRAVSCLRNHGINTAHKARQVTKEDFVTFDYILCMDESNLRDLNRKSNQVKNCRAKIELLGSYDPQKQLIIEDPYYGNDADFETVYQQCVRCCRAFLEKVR

[5] = target: T2, Low molecular weight phosphotyrosine protein phosphatase (Bos taurus); test: Inhibition of bovine kidney LMW-PTPase at 400 uM using pNPP substrate
[6] = target: T3, Tyrosine-protein phosphatase non-receptor type 1 (Homo sapiens, UniProt P18031); test: Inhibition of human PTP1B
T3 sequence (P18031 whole entry): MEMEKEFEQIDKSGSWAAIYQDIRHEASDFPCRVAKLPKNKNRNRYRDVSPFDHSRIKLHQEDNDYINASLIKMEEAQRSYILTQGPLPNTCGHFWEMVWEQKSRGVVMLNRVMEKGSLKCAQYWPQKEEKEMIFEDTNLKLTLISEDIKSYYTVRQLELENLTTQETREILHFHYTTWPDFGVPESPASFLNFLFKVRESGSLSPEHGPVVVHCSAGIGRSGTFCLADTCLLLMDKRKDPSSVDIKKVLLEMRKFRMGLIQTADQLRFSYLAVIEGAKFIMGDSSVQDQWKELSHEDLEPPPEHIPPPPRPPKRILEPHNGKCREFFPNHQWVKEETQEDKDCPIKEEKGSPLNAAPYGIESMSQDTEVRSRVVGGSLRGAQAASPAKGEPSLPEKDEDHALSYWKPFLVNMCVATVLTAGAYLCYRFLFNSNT

Structure (SMILES)	IC50 [1] [µM]	IC50 [2] [µM]	inhibition [5] [%]	also measured
Nc1ccccc1/C=C/P(=O)(O)O	5300	13000	–	–
Nc1ccccc1CCP(=O)(O)O	250	1400	–	–
CCCCCCCCCCCCC[C@H]1OC(=O)[C@H](COCc2ccccc2)NC(=O)[C@H]([C@@H](C)O)NC(=O)[C@H](C(C)C)NC(=O)[C@H]1C	–	–	–	IC50 [3]: 8.8 µM
O=c1c(O)c(-c2ccc(O)c(O)c2)oc2cc(O)cc(O)c12	–	–	–	fold change (FC) [4]: 2.6
C[C@@H]1O[C@@H](OC[C@H]2O[C@@H](Oc3c(-c4ccc(O)c(O)c4)oc4cc(O)cc(O)c4c3=O)[C@H](O)[C@@H](O)[C@@H]2O)[C@H](O)[C@H](O)[C@H]1O	–	–	14	–
O=C(O)c1ccc(COc2cccc(/C=C3\S/C(=N\c4ccccc4)N(Cc4ccc(C(=O)O)cc4)C3=O)c2)cc1	0.5	0.22	–	–
O=c1c(O)c(-c2ccc(O)cc2O)oc2cc(O)cc(O)c12	–	–	35	–
O=C(O)c1ccc(COc2ccc(/C=C3\S/C(=N\c4ccccc4)N(Cc4ccc(C(=O)O)cc4)C3=O)cc2)cc1	5.8	–	–	IC50 [6]: 0.55 µM
Oc1cc(O)c2c(c1)OC(c1ccc(O)c(O)c1)C(O)C2 (configuration not stated)	–	–	14	–
O=C(CCc1ccc(O)cc1)c1c(O)cc(O)cc1O	–	–	14	–
C/C(=C1\C=CC=N1)c1ccc(-c2ccc[nH]2)o1	–	–	–	IC50 [3]: 9.4 µM
O=P(O)(O)CCc1cccc2ccccc12	14000	10000	–	–
O=P(O)(O)CCc1cncc2cc[nH]c12	1790	2760	–	–
O=c1c(O)c(-c2cc(O)c(O)c(O)c2)oc2cc(O)cc(O)c12	–	–	14	–
Nc1ccncc1CCP(=O)(O)O	300	2210	–	–
